Test [1] has as its system Pseudomonas aeruginosa PA01.
Test [2] relates to Pseudomonas aeruginosa PA14.
For test [3], the system named is Salmonella enterica Enteritidis AR496.
The test system of test [4] is Acinetobacter baumannii ATCC 19606.
In test [5] the test system is Klebsiella pneumoniae AR347.
Test [6] concerns Yersinia pseudotuberculosis ATCC 6904.
Test [7] deals with Photorhabdus australis DSM 17609.
The subject of test [8] is Burkholderia cenocepacia ATCC BAA-245.
In test [9] the test system is Staphylococcus aureus HG003.
The subject of test [10] is Escherichia coli ATCC 25922.
The subject of test [11] is Escherichia coli K-12 MG1655.
Test [12] concerns Salmonella enterica typhimurium LT2A TCC 19585.
For test [13], the system named is Enterobacter cloaceae ATCC 13047.
Test [14] concerns Moraxella catarrhalis ATCC 25248.
Test [15] concerns Shigella sonnei ATCC 25931.
Test [16] has as its system Vibrio vulnificus KLE δ-1125.
The subject of test [17] is Veillonella ratti KLE 2365.
The test system of test [18] is Bacteroides fragilis KLE 2244.
The test system of test [19] is Bacteroides stercoris KLE 2537.
Test [20] has as its system Limosilactobaccilus reuteri LTH5448.
In test [21] the test system is Clostridium bifermentans KLE 2329.

“And” between values parts separate entries of the source, which are not always exact repeats. Equal values may be shown once. Read-outs that look alike come from different tables or passages of the source.

As usually defined, the MIC is the smallest concentration in the dilution series that meets the test's criterion for growth inhibition. A high value points to weaker potency.

Take `CC(C)C(NC(=O)C1NC(=O)C(CO)NC(=O)C(CC(N)=O)NC(=O)C(NC(=O)C(CO)NC(=O)C2CCCN2)Cc2c[nH]c3cc(ccc23)C1C(N)=O)C(=O)NC1Cc2cn(cn2)C(c2ccc(O)cc2)C(C(=O)NC(CCCNC(=N)N)C(=O)NC(Cc2ccccc2)C(=O)O)NC(=O)C(CO)NC1=O` (stereo not shown) [Formula (III)]: the MIC was found to be 16 µg/mL in test [1]; 32 µg/mL in [2] (PA14); 8 µg/mL against Escherichia coli MG1655 (MG1655); 16 µg/mL against Escherichia coli AR350; 32 µg/mL in test [3]; 8 µg/mL in [4] (ATCC 19606). The MIC in test [5] was 125 µg/mL; in the test on Proteus mirabilis H14320 (H14320), 32 µg/mL; in the test on Proteus mirabilis BB2000 (BB2000) it was 64 µg/mL; in test [6] (Yersinia pseudotuberculosis ATCC 6904) it was 16 µg/mL; in [7] (DSM 17609), 500 µg/mL; in test [8], >1000 µg/mL. Besides, the MIC (in test [9] (HG003); against Bacillus subtilis 168 (168)) was >1000 µg/mL throughout.
With `CC(C)C(NC(=O)C1NC(=O)C(CO)NC(=O)C(CC(N)=O)NC(=O)C(N)Cc2c[nH]c3cc(ccc23)C1C(N)=O)C(=O)NC1Cc2cn(cn2)C(c2ccc(O)cc2)C(C(=O)NC(CCCNC(=N)N)C(=O)NC(Cc2ccccc2)C(=O)O)NC(=O)C(CO)NC1=O` (stereo not shown) [Formula (I)], the MIC in test [1] (Pseudomonas aeruginosa PA01) was 8 µg/mL; in test [2] (Pseudomonas aeruginosa PA14), 16 µg/mL; against Escherichia coli MG1655 (Escherichia coli MG1655), 16 µg/mL; with Escherichia coli AR350, 8 µg/mL; in [10], 8 µg/mL; in test [11], 16 µg/mL. The MIC in test [12] was 8 µg/mL; in test [3], 8 µg/mL; in [4] (Acinetobacter baumannii ATCC 19606), 16 µg/mL; in test [5], 64 µg/mL; against Proteus mirabilis H14320 (Proteus mirabilis H14320), 64 µg/mL; in the test on Proteus mirabilis BB2000 (Proteus mirabilis BB2000), 125 µg/mL. Besides, the minimal inhibitory concentration (MIC) in [6] (ATCC 6904) is 8 µg/mL; in test [7] (Photorhabdus australis DSM 17609 (producer strain; listed twice)), 250 µg/mL and >128 µg/mL; in test [8], >1000 µg/mL; in test [13], 16 µg/mL; in test [14], 2 µg/mL; in [15], 4 µg/mL. Further, the MIC in test [16] is 8 µg/mL; in [17], 16 µg/mL; in test [18], >128 µg/mL; in [19] it was >128 µg/mL; in [9] (Staphylococcus aureus HG003) it was >1000 µg/mL; against Bacillus subtilis 168 (Bacillus subtilis 168), >1000 µg/mL. For the same molecule, the MIC in [20] and in test [21] was >128 µg/mL in each case.

Values taken from US20240002442A1, “CYCLIC PEPTIDES WITH ANTIMICROBIAL PROPERTIES” (priority 2020, published 2024).
